Data: ChEMBL document CHEMBL5113490, “Discovery of CN0 as a novel proteolysis-targeting chimera (PROTAC) degrader of PARP1 that can activate the cGAS/STING immunity pathway combined with daunorubicin” (Bioorg Med Chem, 2022)
Activity calls are given as the source filed them. The calls are words filed in the database; no cut-off is given here.

Assays:
MDA-MB-231 [1] = assay: Growth inhibition of human MDA-MB-231 cells at 10 uM in presence of 1 uM daunorubicin; assay type: functional; settings: read-out: GI
[2] = Cytotoxicity against human MCF-10A cells assessed as growth inhibition at 10 uM in presence of 0.5 uM daunorubicin; assay type: toxicity, cell-based; settings: read-out: GI
[3] = Cytotoxicity against human MCF-10A cells assessed as growth inhibition at 10 uM; assay type: toxicity, cell-based; settings: read-out: GI
4T1 [4] = assay: Growth inhibition of mouse 4T1 cells at 10 uM in presence of 0.25 uM daunorubicin; assay type: functional; settings: read-out: GI
4T1 [5] = assay: Growth inhibition of mouse 4T1 cells at 10 uM; assay type: functional; settings: read-out: GI
[6] = Cmax in rat at 8 mg/kg, iv; assay type: ADME, organism-based; parameters: dose 8 mg/kg, route iv; settings: in vivo
[7] = Cytotoxicity against human MCF-10A cells assessed as growth inhibition at 10 uM in presence of 0.25 uM daunorubicin; assay type: toxicity, cell-based; settings: read-out: GI
[8] = Toxicity in immunocompetent mouse allografted with mouse 4T1 cells assessed as effect on body weight at 25 mg/kg, ip administered once a day in presence of daunorubicin at 0.5 mg/kg, ip administered once a day; assay type: organism-based; settings: in vivo
[9] = MRT in rat at 8 mg/kg, iv; assay type: ADME, organism-based; settings: in vivo
MDA-MB-231 [10] = assay: Growth inhibition of human MDA-MB-231 cells at 10 uM; assay type: functional; settings: read-out: GI
MDA-MB-231 [11] = assay: Activation of cGAS/STING pathway in human MDA-MB-231 cells assessed as increase in STING phosphorylation at 10 uM in presence of 0.5 uM daunorubicin measured after 24 hrs; assay type: cell-based; settings: filed as activator
MDA-MB-231 [12] = assay: Inhibition of DNA repair in human MDA-MB-231 cells assessed as induction of gamma-H2AX level at 10 uM in presence of 0.5 uM daunorubicin measured after 2 hrs by western blot analysis; assay type: functional, cell-based
4T1 [13] = assay: Growth inhibition of mouse 4T1 cells assessed as combination index at 10 uM in presence of 1 uM daunorubicin; assay type: functional
MDA-MB-231 [14] = assay: Growth inhibition of human MDA-MB-231 cells at 10 uM in presence of 0.25 uM daunorubicin; assay type: functional; settings: read-out: GI
4T1 [15] = assay: Antitumor activity against mouse 4T1 cells allografted in immunocompetent mouse assessed as reduction in tumor volume at 25 mg/kg, ip administered once a day in presence of daunorubicin at 0.5 mg/kg, ip administered once a day; assay type: functional, organism-based
MDA-MB-231 [16] = assay: Antiproliferative activity against human MDA-MB-231 cells assessed as increase in cell killing by T cells at 10 uM in presence of 0.5 uM daunorubicin measured after 24 hrs by flow cytometry analysis; assay type: functional, cell-based
[17] = molecular target: T1, Protein cereblon/Poly [ADP-ribose] polymerase 1 (Homo sapiens, UniProt P09874+Q96SW2); assay: Protac activity at CRBN/PARP1 in human MDA-MB-231 cells assessed as PARP1 degradation at 10 uM measured after 4 to 48 hrs; assay type: cell-based; settings: time 4-48 hrs
Target sequence in this assay (P09874 2-1014 limits assumed): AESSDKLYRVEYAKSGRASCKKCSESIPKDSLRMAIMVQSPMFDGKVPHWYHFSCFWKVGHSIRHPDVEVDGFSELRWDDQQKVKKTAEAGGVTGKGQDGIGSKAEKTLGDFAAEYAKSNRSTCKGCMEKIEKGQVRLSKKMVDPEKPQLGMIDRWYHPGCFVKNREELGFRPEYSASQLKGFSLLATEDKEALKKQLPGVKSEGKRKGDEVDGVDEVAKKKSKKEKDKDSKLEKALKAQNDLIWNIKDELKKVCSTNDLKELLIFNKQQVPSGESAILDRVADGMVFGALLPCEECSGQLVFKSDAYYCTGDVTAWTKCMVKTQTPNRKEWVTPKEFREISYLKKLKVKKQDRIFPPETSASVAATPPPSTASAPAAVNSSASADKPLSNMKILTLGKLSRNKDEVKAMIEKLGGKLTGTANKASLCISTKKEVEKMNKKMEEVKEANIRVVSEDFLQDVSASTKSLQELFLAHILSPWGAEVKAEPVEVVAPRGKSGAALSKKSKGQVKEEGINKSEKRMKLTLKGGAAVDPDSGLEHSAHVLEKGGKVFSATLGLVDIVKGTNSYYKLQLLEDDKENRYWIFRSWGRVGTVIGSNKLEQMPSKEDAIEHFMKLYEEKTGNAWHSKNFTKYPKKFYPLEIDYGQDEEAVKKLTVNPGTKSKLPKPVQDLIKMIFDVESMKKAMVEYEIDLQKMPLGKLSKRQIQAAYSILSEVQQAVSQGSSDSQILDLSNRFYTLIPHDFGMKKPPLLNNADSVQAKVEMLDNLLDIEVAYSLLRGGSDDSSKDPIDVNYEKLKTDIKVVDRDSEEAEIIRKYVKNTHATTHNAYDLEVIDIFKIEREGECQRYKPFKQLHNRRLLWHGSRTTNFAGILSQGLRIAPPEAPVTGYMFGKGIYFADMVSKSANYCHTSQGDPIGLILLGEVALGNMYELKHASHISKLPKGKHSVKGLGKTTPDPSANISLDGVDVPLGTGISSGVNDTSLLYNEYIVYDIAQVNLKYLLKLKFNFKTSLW
Target sequence in this assay (Q96SW2 whole entry partner): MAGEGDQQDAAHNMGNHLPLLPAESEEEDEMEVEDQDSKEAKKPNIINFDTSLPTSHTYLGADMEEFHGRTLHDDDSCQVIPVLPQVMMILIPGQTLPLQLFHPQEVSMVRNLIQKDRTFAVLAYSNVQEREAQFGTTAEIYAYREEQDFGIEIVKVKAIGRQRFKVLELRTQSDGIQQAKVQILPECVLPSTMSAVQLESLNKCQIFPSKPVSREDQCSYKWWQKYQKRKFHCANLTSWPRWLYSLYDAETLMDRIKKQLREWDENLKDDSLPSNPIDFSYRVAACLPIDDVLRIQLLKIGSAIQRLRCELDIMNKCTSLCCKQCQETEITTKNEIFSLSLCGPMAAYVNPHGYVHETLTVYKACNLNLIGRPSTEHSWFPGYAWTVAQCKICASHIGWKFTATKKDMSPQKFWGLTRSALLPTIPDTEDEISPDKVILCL

MDA-MB-231 [18] = assay: Growth inhibition of human MDA-MB-231 cells assessed as combination index at 10 uM in presence of 1 uM daunorubicin; assay type: functional
[19] = Half-life in rat at 8 mg/kg, iv; assay type: ADME, organism-based; settings: in vivo
MDA-MB-231 [20] = assay: Activation of cGAS/STING pathway in human MDA-MB-231 cells assessed as upregulation of cGAS mRNA expression at 10 uM in presence of 0.5 uM daunorubicin measured after 24 hrs; assay type: cell-based; settings: filed as activator
MDA-MB-231 [21] = assay: Activation of cGAS/STING pathway in human MDA-MB-231 cells assessed as increase in TBK1 phosphorylation at S172 residue at 10 uM in presence of 0.5 uM daunorubicin measured after 24 hrs; assay type: cell-based; settings: filed as activator
MDA-MB-231 [22] = assay: Activation of cGAS/STING pathway in human MDA-MB-231 cells assessed as upregulation of CXCL9 mRNA expression at 10 uM in presence of 0.5 uM daunorubicin measured after 24 hrs; assay type: cell-based; settings: filed as activator
MDA-MB-231 [23] = assay: Growth inhibition of human MDA-MB-231 cells at 10 uM in presence of 4 uM daunorubicin; assay type: functional; settings: read-out: GI
4T1 [24] = assay: Growth inhibition of mouse 4T1 cells at 10 uM in presence of 0.5 uM daunorubicin; assay type: functional; settings: read-out: GI
MDA-MB-231 [25] = assay: Growth inhibition of human MDA-MB-231 cells assessed as combination index at 10 uM in presence of 4 uM daunorubicin; assay type: functional
[26] = molecular target: T1, Protein cereblon/Poly [ADP-ribose] polymerase 1; assay: Protac activity at CRBN/PARP1 in human MDA-MB-231 cells assessed as PARP1 degradation measured after 24 hrs; assay type: cell-based
Target sequence in this assay (P09874 whole entry): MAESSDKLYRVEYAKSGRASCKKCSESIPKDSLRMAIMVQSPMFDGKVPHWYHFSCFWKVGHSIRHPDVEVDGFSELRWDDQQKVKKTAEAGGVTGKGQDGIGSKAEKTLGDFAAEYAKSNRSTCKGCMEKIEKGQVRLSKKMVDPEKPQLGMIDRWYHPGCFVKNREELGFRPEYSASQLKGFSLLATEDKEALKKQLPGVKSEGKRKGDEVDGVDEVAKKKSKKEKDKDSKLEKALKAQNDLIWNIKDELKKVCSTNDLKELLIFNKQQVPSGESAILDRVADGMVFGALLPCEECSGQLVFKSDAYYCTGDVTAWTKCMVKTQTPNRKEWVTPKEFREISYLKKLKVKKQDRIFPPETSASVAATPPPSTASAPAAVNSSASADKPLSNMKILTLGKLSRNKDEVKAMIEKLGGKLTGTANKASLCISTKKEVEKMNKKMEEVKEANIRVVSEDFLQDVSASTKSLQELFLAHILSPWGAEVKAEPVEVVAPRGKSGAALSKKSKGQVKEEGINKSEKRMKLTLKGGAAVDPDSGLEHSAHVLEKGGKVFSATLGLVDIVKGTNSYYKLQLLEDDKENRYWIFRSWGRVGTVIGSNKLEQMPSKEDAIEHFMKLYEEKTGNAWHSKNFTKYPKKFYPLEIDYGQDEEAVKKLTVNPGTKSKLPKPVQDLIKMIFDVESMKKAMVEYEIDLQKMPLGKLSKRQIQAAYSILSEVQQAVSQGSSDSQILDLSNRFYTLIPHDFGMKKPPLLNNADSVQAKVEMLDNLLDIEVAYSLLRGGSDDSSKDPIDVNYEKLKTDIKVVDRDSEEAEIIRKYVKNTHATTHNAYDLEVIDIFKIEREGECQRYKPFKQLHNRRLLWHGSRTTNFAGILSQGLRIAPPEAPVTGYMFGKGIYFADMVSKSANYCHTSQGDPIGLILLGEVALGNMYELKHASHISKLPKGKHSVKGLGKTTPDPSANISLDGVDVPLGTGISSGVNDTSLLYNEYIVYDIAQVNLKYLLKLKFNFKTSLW
Target sequence in this assay (Q96SW2 whole entry): as the sequence (Q96SW2 whole entry partner) above

4T1 [27] = assay: Growth inhibition of mouse 4T1 cells at 10 uM in presence of 1 uM daunorubicin; assay type: functional; settings: read-out: GI
4T1 [28] = assay: In vivo protac activity at CRBN/PARP1 in mouse 4T1 cells xenografted in mouse assessed as PARP1 degradation at 25 mg/kg, ip administered once a day; assay type: functional, organism-based
4T1 [29] = assay: Antitumor activity against mouse 4T1 cells allografted in immunocompetent mouse assessed as increase in CD8-positive T cells at 25 mg/kg, ip administered once a day in presence of daunorubicin at 0.5 mg/kg, ip administered once a day; assay type: functional, organism-based
[30] = molecular target: T1, Protein cereblon/Poly [ADP-ribose] polymerase 1; assay: Protac activity at CRBN/PARP1 in human MDA-MB-231 cells assessed as PARP1 degradation at 10 uM measured after 3 hrs in presence of 10 uM Z-VAD-FMK; assay type: cell-based
Target sequence in this assay (P09874 2-1014 limits assumed): as the sequence (P09874 2-1014 limits assumed) above
Target sequence in this assay (Q96SW2 whole entry partner): as the sequence (Q96SW2 whole entry partner) above

MDA-MB-231 [31] = assay: Activation of cGAS/STING pathway in human MDA-MB-231 cells assessed as increase in P65 phosphorylation at 10 uM in presence of 0.5 uM daunorubicin measured after 24 hrs; assay type: cell-based; settings: filed as activator
MDA-MB-231 [32] = assay: Activation of cGAS/STING pathway in human MDA-MB-231 cells assessed as increase in IRF3 phosphorylation at S396 residue at 10 uM in presence of 0.5 uM daunorubicin measured after 24 hrs; assay type: cell-based; settings: filed as activator
4T1 [33] = assay: Growth inhibition of mouse 4T1 cells assessed as combination index at 10 uM in presence of 0.5 uM daunorubicin; assay type: functional
4T1 [34] = assay: Growth inhibition of mouse 4T1 cells assessed as combination index at 10 uM in presence of 0.25 uM daunorubicin; assay type: functional
MDA-MB-231 [35] = assay: Activation of cGAS/STING pathway in human MDA-MB-231 cells assessed as upregulation of CCL5 mRNA expression at 10 uM in presence of 0.5 uM daunorubicin measured after 24 hrs; assay type: cell-based; settings: filed as activator
MDA-MB-231 [36] = assay: Inhibition of DNA repair in human MDA-MB-231 cells assessed as induction of free cytosolic dsDNA at 5 uM in presence of 0.5 uM daunorubicin measured after 24 hrs by DAPI staining method; assay type: functional, cell-based
[37] = AUC (0 to t) in rat at 8 mg/kg, iv; assay type: ADME, organism-based; parameters: dose 8 mg/kg, route iv; settings: in vivo
[38] = molecular target: Protein cereblon (Homo sapiens) (UniProt Q96SW2); assay: Binding affinity to CRBN in human MDA-MB-231 cells measured by thermal shift assay; assay type: cell-based
Protein cereblon (Homo sapiens), sequence (Q96SW2 whole entry): as the sequence (Q96SW2 whole entry partner) above

MDA-MB-231 [39] = assay: Growth inhibition of human MDA-MB-231 cells assessed as combination index at 10 uM in presence of 0.25 uM daunorubicin; assay type: functional
MDA-MB-231 [40] = assay: Activation of cGAS/STING pathway in human MDA-MB-231 cells assessed as upregulation of STING mRNA expression at 10 uM in presence of 0.5 uM daunorubicin measured after 24 hrs; assay type: cell-based; settings: filed as activator
MDA-MB-231 [41] = assay: Activation of cGAS/STING pathway in human MDA-MB-231 cells assessed as upregulation of CXCL10 mRNA expression at 10 uM in presence of 0.5 uM daunorubicin measured after 24 hrs; assay type: cell-based; settings: filed as activator
MDA-MB-231 [42] = assay: Growth inhibition of human MDA-MB-231 cells at 1 uM; assay type: functional; settings: read-out: GI
4T1 [43] = assay: Growth inhibition of mouse 4T1 cells at 0.5 uM; assay type: functional; settings: read-out: GI
4T1 [44] = assay: Growth inhibition of mouse 4T1 cells at 1 uM; assay type: functional; settings: read-out: GI
[45] = Cytotoxicity against human MCF-10A cells assessed as growth inhibition at 0.5 uM; assay type: toxicity, cell-based; settings: read-out: GI
4T1 [46] = assay: Growth inhibition of mouse 4T1 cells at 0.25 uM; assay type: functional; settings: read-out: GI
[47] = Cytotoxicity against human MCF-10A cells assessed as growth inhibition at 0.25 uM; assay type: toxicity, cell-based; settings: read-out: GI
MDA-MB-231 [48] = assay: Growth inhibition of human MDA-MB-231 cells at 4 uM; assay type: functional; settings: read-out: GI
MDA-MB-231 [49] = assay: Growth inhibition of human MDA-MB-231 cells at 0.25 uM; assay type: functional; settings: read-out: GI

SMILES: NC(=O)c1cccc2cn(-c3ccc(C4CCCN(c5cccc6c5C(=O)N(C5CCC(=O)NC5=O)C6=O)C4)cc3)nc12 (centres undefined)
- inhibition of growth at 10 µM (MDA-MB-231 [1]): 38.1%
- inhibition at 10 µM [2]: 41.2%
- inhibition at 10 µM [3]: 4.93%
- inhibition of growth at 10 µM (4T1 [4]): 65.5%
- inhibition of growth at 10 µM (4T1 [5]): 2.71%
- Cmax [6]: 5770 ng/mL
- inhibition at 10 µM [7]: 35%
- Activity [8]: Non-Toxic
- MRT [9]: 2.55 h
- inhibition of growth at 10 µM (MDA-MB-231 [10]): 4.55%
- Activity (MDA-MB-231 [11]): Active
- inhibition (MDA-MB-231 [12]): Active
- CI (4T1 [13]): 0.0001
- inhibition of growth at 10 µM (MDA-MB-231 [14]): 22.5%
- Activity (4T1 [15]): Active
- Activity (MDA-MB-231 [16]): Active
- Activity [17]: Active
- CI (MDA-MB-231 [18]): 0.06
- half-life [19]: 1.87 h
- Activity (MDA-MB-231 [20]): Active
- Activity (MDA-MB-231 [21]): Active
- Activity (MDA-MB-231 [22]): Active
- inhibition of growth at 10 µM (MDA-MB-231 [23]): 59.8%
- inhibition of growth at 10 µM (4T1 [24]): 70.1%
- CI (MDA-MB-231 [25]): 0.12
- DC50 [26]: 252 nM
- inhibition of growth at 10 µM (4T1 [27]): 98.2%
- Activity (4T1 [28]): Active
- Activity (4T1 [29]): Active
- Activity [30]: Active
- Activity (MDA-MB-231 [31]): Active
- Activity (MDA-MB-231 [32]): Active
- CI (4T1 [33]): 0.45
- CI (4T1 [34]): 0.44
- Activity (MDA-MB-231 [35]): Active
- inhibition (MDA-MB-231 [36]): Active
- AUC(0-t) [37]: 6960 ng·h/mL
- Activity [38]: Active
- CI (MDA-MB-231 [39]): 0.21
- Activity (MDA-MB-231 [40]): Active
- Activity (MDA-MB-231 [41]): Active

SMILES: COc1cccc2c1C(=O)c1c(O)c3c(c(O)c1C2=O)C[C@@](O)(C(C)=O)C[C@@H]3O[C@H]1C[C@H](N)[C@H](O)[C@H](C)O1 [DAUNORUBICIN]
- inhibition of growth at 1 µM (MDA-MB-231 [42]): 10.7%
- inhibition of growth at 0.5 µM (4T1 [43]): 63.6%
- inhibition of growth at 1 µM (4T1 [44]): 69.8%
- inhibition at 0.5 µM [45]: 46.1%
- inhibition of growth at 0.25 µM (4T1 [46]): 60%
- inhibition at 0.25 µM [47]: 35%
- inhibition of growth at 4 µM (MDA-MB-231 [48]): 36.9%
- inhibition of growth at 0.25 µM (MDA-MB-231 [49]): 9.76%
